# Assay results as given in publication PMC8303674, “Discovery of a Novel Triazolopyridine Derivative as a Tankyrase Inhibitor” (International Journal of Molecular Sciences, 2021).
# How the values were obtained:
# TNKS1 (tankyrase) = biological target: T1, TNKS1 (tankyrase) (Homo sapiens, UniProt O95271); experiment: cell-free colorimetric TNKS1 activity assay (BPS Bioscience); assay type: biochemical
# T1 construct: gene TNKS
# From the text: cell-free colorimetric TNKS1 activity assay (BPS Bioscience) on TNKS1 (tankyrase) | IC50 (μM) of TI-12403 against TNKS1 and TNKS2.
# TNKS2 (tankyrase 2) = biological target: T2, TNKS2 (tankyrase 2) (Homo sapiens, UniProt Q9H2K2); experiment: cell-free colorimetric TNKS2 activity assay (BPS Bioscience); assay type: biochemical
# T2 sequence (Q9H2K2 1-1166): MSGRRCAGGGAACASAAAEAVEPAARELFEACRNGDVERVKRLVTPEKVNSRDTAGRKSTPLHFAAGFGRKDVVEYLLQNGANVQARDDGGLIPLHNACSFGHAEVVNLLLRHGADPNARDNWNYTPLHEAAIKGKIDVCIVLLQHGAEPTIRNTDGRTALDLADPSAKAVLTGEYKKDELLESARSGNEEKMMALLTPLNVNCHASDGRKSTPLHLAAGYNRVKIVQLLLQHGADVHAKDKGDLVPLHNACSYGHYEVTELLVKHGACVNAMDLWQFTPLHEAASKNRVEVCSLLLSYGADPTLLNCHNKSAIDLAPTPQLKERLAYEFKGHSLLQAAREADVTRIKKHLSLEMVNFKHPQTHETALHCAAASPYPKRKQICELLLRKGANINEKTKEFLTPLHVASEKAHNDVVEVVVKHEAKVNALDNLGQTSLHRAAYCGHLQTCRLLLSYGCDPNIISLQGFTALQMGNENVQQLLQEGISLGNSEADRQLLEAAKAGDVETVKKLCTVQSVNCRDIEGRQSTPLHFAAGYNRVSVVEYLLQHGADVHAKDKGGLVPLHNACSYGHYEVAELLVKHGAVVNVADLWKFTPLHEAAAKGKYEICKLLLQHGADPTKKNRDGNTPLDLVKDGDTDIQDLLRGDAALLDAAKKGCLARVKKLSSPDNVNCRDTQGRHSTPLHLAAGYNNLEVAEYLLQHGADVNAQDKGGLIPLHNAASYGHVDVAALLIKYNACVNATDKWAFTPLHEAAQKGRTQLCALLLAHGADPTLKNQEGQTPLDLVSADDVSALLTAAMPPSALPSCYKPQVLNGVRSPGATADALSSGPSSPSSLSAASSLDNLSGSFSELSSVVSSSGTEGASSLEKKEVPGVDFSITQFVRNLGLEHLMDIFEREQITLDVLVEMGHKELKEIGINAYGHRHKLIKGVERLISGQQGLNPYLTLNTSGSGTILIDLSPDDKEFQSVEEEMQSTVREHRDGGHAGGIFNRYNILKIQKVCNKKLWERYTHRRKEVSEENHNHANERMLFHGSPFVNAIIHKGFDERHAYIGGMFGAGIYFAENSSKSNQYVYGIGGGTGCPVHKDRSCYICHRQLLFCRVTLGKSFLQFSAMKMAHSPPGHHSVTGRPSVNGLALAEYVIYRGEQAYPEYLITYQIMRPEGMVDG
# From the text: cell-free colorimetric TNKS2 activity assay (BPS Bioscience) on TNKS2 (tankyrase 2) | IC50 (μM) of TI-12403 against TNKS1 and TNKS2.
# T1 sequence (O95271 whole entry): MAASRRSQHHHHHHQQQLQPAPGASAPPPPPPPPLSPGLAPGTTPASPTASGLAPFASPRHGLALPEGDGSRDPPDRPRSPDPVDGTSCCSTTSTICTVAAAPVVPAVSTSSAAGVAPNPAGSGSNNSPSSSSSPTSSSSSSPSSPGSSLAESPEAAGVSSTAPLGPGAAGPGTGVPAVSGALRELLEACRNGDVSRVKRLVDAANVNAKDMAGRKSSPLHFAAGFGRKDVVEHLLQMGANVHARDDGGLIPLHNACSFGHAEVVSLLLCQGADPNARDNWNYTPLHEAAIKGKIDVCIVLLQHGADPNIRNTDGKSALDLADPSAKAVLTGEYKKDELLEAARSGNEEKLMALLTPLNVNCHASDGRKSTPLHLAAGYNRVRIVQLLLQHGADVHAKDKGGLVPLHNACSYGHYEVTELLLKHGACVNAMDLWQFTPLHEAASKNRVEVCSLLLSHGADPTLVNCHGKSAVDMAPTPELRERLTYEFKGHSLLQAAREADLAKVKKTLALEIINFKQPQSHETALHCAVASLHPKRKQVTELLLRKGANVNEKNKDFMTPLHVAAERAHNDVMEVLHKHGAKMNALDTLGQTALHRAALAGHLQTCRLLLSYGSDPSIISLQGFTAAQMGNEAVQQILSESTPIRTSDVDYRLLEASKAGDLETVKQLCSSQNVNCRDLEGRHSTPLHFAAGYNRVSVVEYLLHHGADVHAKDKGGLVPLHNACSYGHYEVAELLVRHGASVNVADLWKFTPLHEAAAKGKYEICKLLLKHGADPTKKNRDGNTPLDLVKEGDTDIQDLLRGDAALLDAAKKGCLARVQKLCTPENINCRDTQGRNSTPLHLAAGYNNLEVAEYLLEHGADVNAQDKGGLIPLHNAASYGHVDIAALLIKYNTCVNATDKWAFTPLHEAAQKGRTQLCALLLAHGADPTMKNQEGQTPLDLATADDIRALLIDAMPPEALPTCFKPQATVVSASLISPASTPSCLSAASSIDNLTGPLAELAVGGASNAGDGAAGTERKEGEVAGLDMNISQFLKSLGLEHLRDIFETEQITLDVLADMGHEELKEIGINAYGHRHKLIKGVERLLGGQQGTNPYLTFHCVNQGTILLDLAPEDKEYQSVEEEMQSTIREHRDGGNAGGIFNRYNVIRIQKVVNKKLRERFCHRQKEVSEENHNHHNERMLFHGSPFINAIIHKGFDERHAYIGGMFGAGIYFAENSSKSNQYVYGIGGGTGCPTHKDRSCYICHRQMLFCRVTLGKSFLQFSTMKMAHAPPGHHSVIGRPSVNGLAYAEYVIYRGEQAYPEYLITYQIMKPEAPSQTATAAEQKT
smiles,measurement,setting,value
"N#Cc1ccccc1N1CCC(C(=O)Nc2nnc3ccccn23)CC1 [TI-12403, N-([1,2,4]triazolo[4,3-a]pyridin-3-yl)-1-(2-cyanophenyl)piperidine-4-carboxamide]",IC50,TNKS1 (tankyrase),29 nM
same,IC50,TNKS2 (tankyrase 2),60 nM
